Results on 20 compounds are retold here after patent publication US11578071B2, “Preparation of pyrazolo[3,4-B]pyridines as antimalarials” (University of Kentucky Research Foundation, priority 2019, dated 2023).

The test system of data set [1] is erythrocytes infected with the 3D7 strain. The data set is described as follows: FACS Killing Rate Assay. In kind it is cell-based, Plasmodium falciparum. More on the design: % Survival at 0 h: concentration or dose not given beside the values. The following applies: for % Survival (24 h) / % Survival (48 h) / % Survival at 0 h: 3D7; for % Survival (24 h): 24 h treatment at 10× IC50; for % Survival (24 h) / % Survival (48 h): mean ± SD of two measurements; for % Survival (48 h): 48 h treatment at 10× IC50; for % Survival at 0 h: treatment time 0 h; for killing profile: in words, compared with chloroquine, pyrimethamine, atovaquone, artesunate. On the procedure: After treatment, the compound is removed and the culture is diluted (⅓^rd dilution) using fresh erythrocytes (2% hematocrit) previously labeled with CFDA-SE (carboxylfluorescein diacetate succinimidyl ester, Life Technologies). […] Samples were analyzed using the Attune N×T software package.

Data set [2] concerns P. falciparum 3D7 gametocytes. The data set is described as follows: Gametocyte EC50 determination. In kind it is cell-based. Conditions: Plasmodium falciparum. On the procedure:
Asexual cultures of P. falciparum 3D7 parasites were used to seed gametocyte cultures at 1% parasitemia and 4% hematocrit as previously described. Culture medium (RPMI medium with 25 mM HEPES, 50 mg/L hypoxanthine, 2 g/L sodium bicarbonate and 10% human serum) was replaced daily for at least 14 day with all solutions, pipettes and work surfaces treated at 37° C. Typical cultures follow the pattern of asexual parasitemia rising to a peak and crashing at days 4-5, with stage II gametocytes visible at day 7, stage III visible at day 9, stage IV visible at day 11, and stage V visible at day 14 with high levels of exflagellation.
To determine EC50 values, the number of exflagellation centers per field, mean oocyst intensity and prevalence of infection were normalized to the respective DMSO treated control and % inhibition calculated. Tested compounds were prepared as a DMSO solutions from 25 μM to 0.026 μM across 22 points. Percentage inhibition data obtained from each individual parameter was fitted to a four-parameter logistic equation with variable slope using GraphPad Prism 6.07 for which compound concentrations were first transformed to their respective log10 values. The data were then fitted using these transformed values without defining constraints.

The subject of data set [3] is P. berghei luciferase sporozoites in HepG2-A16-CD81EGFP cells. The data set is described as follows: Plasmodium Berghei Luciferase Liver Stage Bioluminescence Assay. In kind it is cell-based. Conditions: in words.
Description: HepG2-A16-CD81EGFP cells which were stably transformed to express a GFP-CD81 fusion protein were cultured at 37° C. and 5% CO2 in DMEM supplemented with 10% FBS, 0.29 mg/mL glutamine, 100 units penicillin and 100 μg/mL of streptomycin (Invitrogen, Carlsbad, USA). […] Freshly dissected P. berghei luciferase sporozoites were re-suspended in media and their concentration adjusted to 200 sporozoites/μL. […] After incubation, the plates were assessed by testing the luciferase expression. This was done by removing the media by spinning the inverted plates at 150 g for 1 minute. 2 μL of BrightGlo (Promega) was dispensed with the MicroFlo liquid handler (BioTek) into the emptied 1536 wells. The plates were held for at least 2 minutes with the Bright-Glo reagent in the wells (per manufacturer instructions) for the process to occur. The plates were then loaded and read by an EnVision Multilabel plate reader (PerkinElmer) using a luminescence protocol. IC50 values were obtained using measured bioluminescence intensity and a non-linear variable slope protocol in CDD Vault, an online collaborative drug discovery informatics program.
The test system of a further data set is HepG2-A16-CD81EGFP cells. The data set is described as follows: HepG2 Cytotoxicity Bioluminescence Assay. In kind it is cell-based. The following applies: Homo sapiens, 48 h, mean ± SD of two measurements.

In turn, `Cc1nn(-c2ccccc2)c2nc(-c3ccc([N+](=O)[O-])cc3)c(C#N)c(-c3ccccc3O)c12` [Compound 35, 4-(2-hydroxyphenyl)-3-methyl-6-(4-nitrophenyl)-1-phenyl-1H-pyrazolo[3,4-b]pyridine-5-carbonitrile] gave a melting point of 257 to 258 °C. For `CCc1nc(N)nc(N)c1-c1ccc(Cl)cc1` [Pyrimethamine], in data set [1], the “% Survival (24 h)” value was determined as 56.37 ± 2.55%, the “% Survival (48 h)” value was determined as 16.02 ± 4.36% and the “% Survival at 0 h” value was 100%. In data set [2], `Cc1nn(-c2ccccc2)c2nc(-c3ccc(C(C)(C)C)cc3)c(C#N)c(-c3ccccc3O)c12` [Compound 27, 6-(4-tert-butylphenyl)-4-(2-hydroxyphenyl)-3-methyl-1-phenyl-1H-pyrazolo[3,4-b]pyridine-5-carbonitrile] gave a 50% effective concentration (EC50) above 25 µM. Moreover, in data set [1], the “% Survival at 0 h” value was 100% and the killing profile entry is reported as “moderate killing profile”. Consider `CCN(CC)CCCC(C)Nc1ccnc2cc(Cl)ccc12` (stereo not drawn) [Chloroquine], for which, in data set [1], the “% Survival (24 h)” value is 18.69 ± 7.34%, the “% Survival (48 h)” value is listed as 9.21 ± 2.08% and the “% Survival at 0 h” value is 100%. For `CCc1ccc(-c2nc3c(c(C)nn3-c3ccccc3)c(-c3ccccc3C)c2C#N)cc1` [Compound 12, 6-(4-Ethylphenyl)-3-methyl-4-(2-methylphenyl)-1-phenyl-1H-pyrazolo[3,4-b]pyridine-5-carbonitrile], the melting point lay within 203 to 204 °C. Regarding `CCc1ccc(-c2nc3c(c(C)nn3-c3ccccc3)c(-c3ccccc3OC(F)(F)F)c2C#N)cc1` [Compound 17, 6-(4-Ethylphenyl)-3-methyl-1-phenyl-4-[2-(trifluoromethoxy)phenyl]-1H-pyrazolo[3,4-b]pyridine-5-carbonitrile], the “potency against the liver stage of the parasite” value in data set [3] is listed as “sub-micromolar potency”. The EC50 (in data set [2]; with HepG2-A16-CD81EGFP cells) was above 25 µM in each case. Turning to `CCc1ccc(-c2nc3c(c(C)nn3-c3ccccc3)c(-c3ccccc3C(F)(F)F)c2C#N)cc1` [Compound 15, 6-(4-Ethylphenyl)-3-methyl-1-phenyl-4-[2-(trifluoromethyl)phenyl]-1H-pyrazolo[3,4-b]pyridine-5-carbonitrile], the melting point lay in the range of 193 to 195 °C. The same measure, in the same setting: next, `Cc1nn(-c2ccccc2)c2nc(-c3ccc(C#N)cc3)c(C#N)c(-c3ccccc3O)c12` [Compound 34, 6-(4-cyanophenyl)-4-(2-hydroxyphenyl)-3-methyl-1-phenyl-1H-pyrazolo[3,4-b]pyridine-5-carbonitrile]: 165 to 166 °C.

Regarding `C[C@H]1[C@H](OC(=O)CCC(=O)O)O[C@@H]2O[C@@]3(C)CC[C@H]4[C@H](C)CC[C@@H]1[C@@]24OO3` [Artesunate], in data set [1], the “% Survival (24 h)” value came out at 17.50 ± 3.68%, the “% Survival (48 h)” value is recorded as 6.44 ± 0.51% and the “% Survival at 0 h” value worked out at 100%.

As for `Cc1nn(-c2ccccc2)c2nc(-c3ccc(I)cc3)c(C#N)c(-c3ccccc3O)c12` [Compound 33, 4-(2-hydroxyphenyl)-6-(4-iodophenyl)-3-methyl-1-phenyl-1H-pyrazolo[3,4-b]pyridine-5-carbonitrile], the melting point lay in the range of 289 to 291 °C.

As for `CCc1ccc(-c2nc3c(c(C)nn3-c3ccccc3)c(-c3ccccc3Br)c2C#N)cc1` [Compound 9, 4-(2-Bromophenyl)-6-(4-ethylphenyl)-3-methyl-1-phenyl-1H-pyrazolo[3,4-b]pyridine-5-carbonitrile], the melting point lay in the range of 208 to 209 °C.

In the case of `CCc1ccc(-c2nc3c(c(C)nn3-c3ccccc3)c(-c3ccccc3I)c2C#N)cc1` [Compound 8, 6-(4-Ethylphenyl)-4-(2-iodophenyl)-3-methyl-1-phenyl-1H-pyrazolo[3,4-b]pyridine-5-carbonitrile], the melting point fell in the range of 205 to 207 °C. `Cc1nn(-c2ccccc2)c2nc(-c3ccc(Cl)cc3)c(C#N)c(-c3ccccc3O)c12` [Compound 32, 6-(4-chlorophenyl)-4-(2-hydroxyphenyl)-3-methyl-1-phenyl-1H-pyrazolo[3,4-b]pyridine-5-carbonitrile] gave a melting point of 281 to 282 °C. `CCc1ccc(-c2nc3c(c(C)nn3-c3ccccc3)c(-c3ccccc3Cl)c2C#N)cc1` [Compound 10, 4-(2-Chlorophenyl)-6-(4-ethylphenyl)-3-methyl-1-phenyl-1H-pyrazolo[3,4-b]pyridine-5-carbonitrile]: the “potency against the liver stage of the parasite” value in data set [3] was “sub-micromolar potency”. The same compound had an EC50 in data set [2] above 25 µM. In data set [1], the “% Survival at 0 h” value worked out at 100% and the killing profile entry is “slow killing profile”. Moreover, in the data set with HepG2-A16-CD81EGFP cells, the EC50 was above 50 µM. Compound `Cc1nn(-c2ccccc2)c2nc(-c3ccc(C(F)(F)F)cc3)c(C#N)c(-c3ccccc3O)c12` [Compound 30, 4-(2-hydroxyphenyl)-3-methyl-1-phenyl-6-[4-(trifluoromethyl)phenyl]-1H-pyrazolo[3,4-b]pyridine-5-carbonitrile] registered a melting point of 254 to 256 °C. The same measure, in the same setting: in the case of `CCc1ccc(-c2nc3c(c(C)nn3-c3ccccc3)c(-c3ccccc3F)c2C#N)cc1` [Compound 11, 6-(4-Ethylphenyl)-4-(2-fluorophenyl)-3-methyl-1-phenyl-1H-pyrazolo[3,4-b]pyridine-5-carbonitrile] it was 197 to 199 °C. Still for that read-out and setting: next, `CCc1ccc(-c2nc3c(c(C)nn3-c3ccccc3)c(-c3ccccc3OC)c2C#N)cc1` [Compound 16, 6-(4-Ethylphenyl)-4-(2-methoxyphenyl)-3-methyl-1-phenyl-1H-pyrazolo[3,4-b]pyridine-5-carbonitrile]: 196 to 198 °C; `Cc1nn(-c2ccccc2)c2nc(-c3ccc(F)cc3)c(C#N)c(-c3ccccc3O)c12` [Compound 31, 6-(4-fluorophenyl)-4-(2-hydroxyphenyl)-3-methyl-1-phenyl-1H-pyrazolo[3,4-b]pyridine-5-carbonitrile]: 234 to 236 °C; `CCc1ccc(-c2nc3c(c(C)nn3-c3ccccc3)c(-c3ccccc3C#N)c2C#N)cc1` [Compound 7, 4-(2-Cyanophenyl)-6-(4-ethylphenyl)-3-methyl-1-phenyl-1H-pyrazolo[3,4-b]pyridine-5-carbonitrile]: 201 to 203 °C. `O=C1C(O)=C([C@H]2CC[C@H](c3ccc(Cl)cc3)CC2)C(=O)c2ccccc21` [Atovaquone]: in data set [1], the “% Survival (24 h)” value is reported as 78.96 ± 3.89%, the “% Survival (48 h)” value was 39.89 ± 4.37% and the “% Survival at 0 h” value is on record as 100%.
